Data on 11 compounds can be found in patent US10233191B2, “Fused piperidine amides as modulators of ion channels” (Vertex Pharmaceuticals Incorporated, priority 2013, dated 2019).

The target of this experiment is T1, NaV 1.7 (Homo sapiens, UniProt Q15858).
T1 construct: expressed in transfected cells; host or cells: HEK cells
Briefly: E-VIPR optical membrane potential assay with electrical stimulation. The conditions noted are these: active against one or more sodium channels; assay/subtype not specified in Table 4; read-out: IC50 Binned Activity Data. It is filed as cell-based. The method, boiled down:
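HEK cells expressing human NaV1.7, loaded with CC2-DMPE/DiSBAC6(3) FRET dyes, then exposed to compounds for 20-35 min at room temperature (0.625% DMSO). Electrical stimulation applied for 9 s with 400 Hz scanning. Read-out is the background-subtracted 460/580 nm emission ratio, normalized.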

The structures appear in SMILES notation.

T1 sequence (Q15858 whole entry): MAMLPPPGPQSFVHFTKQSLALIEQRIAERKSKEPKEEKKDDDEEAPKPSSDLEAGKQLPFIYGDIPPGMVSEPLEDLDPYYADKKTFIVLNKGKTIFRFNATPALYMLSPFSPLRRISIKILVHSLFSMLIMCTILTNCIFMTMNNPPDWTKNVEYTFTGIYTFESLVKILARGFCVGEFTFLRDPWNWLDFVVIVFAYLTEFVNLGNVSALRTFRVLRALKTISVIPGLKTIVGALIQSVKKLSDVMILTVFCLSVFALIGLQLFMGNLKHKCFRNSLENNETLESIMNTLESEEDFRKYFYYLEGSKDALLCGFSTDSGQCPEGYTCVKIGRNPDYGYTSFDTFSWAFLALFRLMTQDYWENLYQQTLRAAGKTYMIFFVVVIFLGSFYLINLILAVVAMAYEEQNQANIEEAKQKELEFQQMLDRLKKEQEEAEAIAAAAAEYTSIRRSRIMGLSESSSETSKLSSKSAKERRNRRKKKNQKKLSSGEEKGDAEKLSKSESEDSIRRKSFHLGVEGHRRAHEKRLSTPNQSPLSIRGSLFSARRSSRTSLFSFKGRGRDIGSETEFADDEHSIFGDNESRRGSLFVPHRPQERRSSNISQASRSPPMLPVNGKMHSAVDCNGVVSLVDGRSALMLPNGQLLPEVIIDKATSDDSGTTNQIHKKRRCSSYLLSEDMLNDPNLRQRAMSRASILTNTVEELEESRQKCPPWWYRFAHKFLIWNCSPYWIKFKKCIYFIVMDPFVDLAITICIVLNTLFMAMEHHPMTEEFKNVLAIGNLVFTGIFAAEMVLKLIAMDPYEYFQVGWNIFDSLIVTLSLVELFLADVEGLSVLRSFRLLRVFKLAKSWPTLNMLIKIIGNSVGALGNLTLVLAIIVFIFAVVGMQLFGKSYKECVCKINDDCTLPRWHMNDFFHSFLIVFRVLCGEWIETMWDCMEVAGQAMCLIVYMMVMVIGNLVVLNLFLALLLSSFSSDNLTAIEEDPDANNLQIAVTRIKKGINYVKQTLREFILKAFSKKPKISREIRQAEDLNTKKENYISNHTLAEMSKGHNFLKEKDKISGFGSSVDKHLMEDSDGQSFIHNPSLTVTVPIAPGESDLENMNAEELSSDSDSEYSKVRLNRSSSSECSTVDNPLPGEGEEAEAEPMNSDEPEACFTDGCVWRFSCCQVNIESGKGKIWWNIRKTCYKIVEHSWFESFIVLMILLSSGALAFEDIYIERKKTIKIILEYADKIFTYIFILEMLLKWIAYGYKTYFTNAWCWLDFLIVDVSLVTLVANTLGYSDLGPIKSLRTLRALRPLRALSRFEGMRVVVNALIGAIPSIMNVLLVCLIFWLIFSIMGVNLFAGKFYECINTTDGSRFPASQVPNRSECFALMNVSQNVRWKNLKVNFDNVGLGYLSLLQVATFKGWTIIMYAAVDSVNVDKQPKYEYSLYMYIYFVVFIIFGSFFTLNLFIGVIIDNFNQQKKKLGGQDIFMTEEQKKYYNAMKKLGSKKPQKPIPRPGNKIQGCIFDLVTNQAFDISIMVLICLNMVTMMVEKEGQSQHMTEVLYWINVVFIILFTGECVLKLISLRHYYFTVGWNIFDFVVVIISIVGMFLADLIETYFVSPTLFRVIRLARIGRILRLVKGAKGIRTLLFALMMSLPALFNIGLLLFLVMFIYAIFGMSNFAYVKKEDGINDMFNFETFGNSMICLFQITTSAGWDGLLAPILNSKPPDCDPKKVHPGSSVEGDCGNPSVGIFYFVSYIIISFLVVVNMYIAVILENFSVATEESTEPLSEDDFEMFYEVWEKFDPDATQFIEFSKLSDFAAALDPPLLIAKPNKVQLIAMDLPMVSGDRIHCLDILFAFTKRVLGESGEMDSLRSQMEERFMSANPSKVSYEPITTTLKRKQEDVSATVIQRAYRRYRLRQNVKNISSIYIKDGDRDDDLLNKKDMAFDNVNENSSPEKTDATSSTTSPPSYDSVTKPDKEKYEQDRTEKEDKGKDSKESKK

As a reminder, the IC50 is the midpoint of a concentration-inhibition curve. As for `COc1nc(C(=O)N2CC[C@]3(c4cccc(F)c4)OCOC3C2)ccc1OCC1CCC(F)(F)C1` (some centres unmarked) [Compound 235], the IC50 was not above 2000 nM.
For the compound `[2H]C1([2H])OC2CN(C(=O)c3ccc(OCCOC(F)(F)F)c(OC)c3)CC[C@]2(c2ccccc2)O1` (some centres unmarked) [Compound 302], the IC50 is not above 2000 nM.
For the compound `COc1cccc([C@]23CCN(C(=O)c4ccc(OCCOC(F)(F)F)c(OC)c4)CC2OCO3)n1` (some centres unmarked) [Compound 192], the IC50 is not above 2000 nM.
The result for `COc1cc(C(=O)N2CC[C@]3(c4cccc(Cl)c4)OCOC3C2)ccc1OC(C)C(F)(F)F` (some centres unmarked) [Compound 170] reads not above 2000 nM; that for `[2H]C1([2H])OC2CN(C(=O)c3ccc(OCCOC(F)(F)F)c(C)n3)CC[C@]2(c2cccc(F)c2)O1` (some centres unmarked) [Compound 306], not above 2000 nM; that for `COc1cc(C(=O)N2CC[C@]3(c4cccc(F)c4F)OCOC3C2)ccc1OC(C)C(F)(F)F` (some centres unmarked) [Compound 187], not above 2000 nM.
The value for `Cc1cc(C(=O)N2CC[C@]3(c4ccccc4)OCOC3C2)ccc1OCC(C)(C)F` (some centres unmarked) [Compound 161] was not above 2000 nM.
The value for `COc1cc(C(=O)N2CC[C@]3(c4cccc(C(F)(F)F)n4)OCOC3C2)ccc1OCCOC(F)(F)F` (some centres unmarked) [Compound 169] was not above 2000 nM; that for `O=C(c1cnc(OCCOC(F)(F)F)c(Cl)c1)N1CC[C@]2(c3ccccn3)OCOC2C1` (some centres unmarked) [Compound 294] was not above 2000 nM.
As to `COc1cc(C(=O)N2CC[C@]3(c4cccc(Cl)c4)OCOC3C2)ccc1O[C@H](C)C(F)(F)F` (some centres unmarked) [Compound 243], the IC50 was not above 2000 nM.
In the case of `COc1cc(C(=O)N2CC[C@@]3(c4ccc(F)cc4)OCOC3C2)ccc1OCCOC(F)(F)F` (some centres unmarked) [Compound 122], the IC50 is not above 2000 nM.
